According to patent publication US20070117868A1, “Use of n-arylhydrazine derivatives for combating non-crop pests” (priority 2004, published 2007):

Key:
Assay type in all cases: in vivo
Camponotus floridanus [1] = assay: Activity via glass contact, carpenter ant; details: rate 10 ppm
Protocol: (§1) 1. Activity Against Argentine Ant, Harvester Ant, Acrobat Ant, Carpenter Ant, Fire Ant, House Fly, Stable Fly, Flesh Fly, Yellowfever Mosquito, House Mosquito, Malaria Mosquito, German Cockroach, Cat Flea, and Brown Dog Tick Via Glass Contact
(§2) Glass vials (20 ml scintillation vials) were treated with 0.5 ml of a solution of active ingredient in acetone. Each vial was rolled uncapped for ca. 10 minutes to allow the a.i. to completely coat the vial and to allow for full drying of the acetone. Insects or ticks were placed into each vial.

Solenopsis invicta [2] = assay: Activity via glass contact, fire ant; details: rate 10 ppm
Protocol: as §1, §2

Musca domestica [3] = assay: Activity via glass contact, house fly; details: rate 10 ppm
Protocol: as §1, §2

Stomoxys calcitrans = assay: Activity via glass contact, stable fly; details: rate 10 ppm
Protocol: as §1, §2

Sarcophaga sp. = assay: Activity via glass contact, flesh fly; details: rate 10 ppm
Protocol: as §1, §2

Aedes aegypti [4] = assay: Activity via glass contact, yellowfever mosquito; details: rate 10 ppm
Protocol: as §1, §2

Culex quinquefasciatus [5] = assay: Activity via glass contact, house mosquito; details: rate 0.5 ppm
Protocol: as §1, §2

Anopheles albimanus [6] = assay: Activity via glass contact, malaria mosquito; details: rate 1 ppm
Protocol: as §1, §2

Ctenocephalides felis = assay: Activity via glass contact, cat flea; details: rate 100 ppm
Protocol: as §1, §2

Crematogaster spp. = assay: Activity via soil contact, acrobat ant; details: rate 0.01 w %
Protocol: (§3) 2. Activity Against Argentine Ant, Acrobat Ant, Carpenter Ant, Fire Ant, and Eastern Subterranean Termite Via Soil Contact
(§4) For ants, tests were conducted in Petri dishes. A thin layer of 1% agar in water was dispensed into the dishes and Florida sandy soil was spread over the agar (5 g for the small dishes and 11 g for the larger dishes). The active ingredient was dissolved in acetone and dispensed over the sand. Dishes were vented to evaporate the acetone, infested with ants, and covered. A 20% honey water solution was placed in each dish. The dishes were maintained at 22° C. and observed for mortality at various time intervals.

Camponotus floridanus [7] = assay: Activity via soil contact, carpenter ant; details: rate 0.01 w %
Protocol: as §3, §4

Solenopsis invicta [8] = assay: Activity via soil contact, fire ant; details: rate 0.01 w %
Protocol: as §3, §4

Solenopsis invicta [9] = assay: Activity via bait (corn grit), fire ant; details: rate 0.7 w %
Protocol: (§5) 3. Activity Against Argentine Ant, Acrobat Ant, Carpenter Ant, Fire Ant, House Fly, Eastern Subterranean Termite, Formosan Subterranean Termite, and German Cockroach Via Bait
For the fire ants, corn grit was used as a bait matrix. […] Petri dishes were supplied with a water source. Fire ant adults were placed into each dish. The next day, 250 mg of bait in bait containers was placed into the dishes.

Musca domestica [10] = assay: Activity via bait, house fly; details: rate 0.1 w %
Protocol: as §5
For house flies. Bait tests were conducted with adults aged 2-5 days post-emergence. Active ingredient in acetone was applied to a bait matrix consisting of a 1:1 mixture of powdered milk and sugar which was then allowed to dry. Assays were conducted in jars with 250 mg of bait in a pan placed in the bottom of each jar. House flies were placed into the bait jars which were covered. The test jars were held at 22° C.

Coptotermes formosanus = assay: Activity via bait (treated filter paper), Formosan termite; details: rate 0.1 w %
Protocol: as §5
For termites, active ingredient in acetone was applied to filter papers. % a.i. were calculated on basis of the weight of the filter paper. Acetone only was applied for untreated controls. Treated papers were vented to evaporate the acetone, moistened with […], and placed Petri dishes with sand. Water was added during the test as needed. Bioassays were conducted with one treated filter and ca. 30 termite workers per test dish. Test dishes were maintained at 25° C. and appr. 85% relative humidity and observed daily for mortality (dead or moribund insects) or intoxication. Dead or moribund insects were removed daily.

Aedes aegypti [11] = assay: Activity via water treatment, yellowfever mosquito larvae; details: rate 10 ppm
Protocol: (§6) 4. Activity Against Yellowfever Mosquito, Southern House Mosquito, and Malaria Mosquito Larvae Via Water Treatment
(§7) Well plates were used as test arenas. The active ingredient was dissolved in acetone and diluted with water to obtain the concentrations needed. The final solutions containing appr. 1% acetone were placed into each well. Approximately 10 mosquito larvae (4th-instars) in 1 ml water were added to each well. Larvae were fed one drop of liver powder each day. The dishes were covered and maintained at 22° C. Mortality was recorded daily and dead larvae and live or dead pupae were removed daily. At the end of the test remaining live larvae were recorded and percent mortality was calculated.

Culex quinquefasciatus [12] = assay: Activity via water treatment, house mosquito larvae; details: rate 10 ppm
Protocol: as §6, §7

Anopheles albimanus [13] = assay: Activity via water treatment, malaria mosquito larvae; details: rate 1.0 ppm
Protocol: as §6, §7

SMILES	Days or Hours to achieve 100% mortality (Camponotus floridanus [1])	Days or Hours to achieve 100% mortality (Solenopsis invicta [2])	Days or Hours to achieve 100% mortality (Musca domestica [3])	Days or Hours to achieve 100% mortality (Stomoxys calcitrans)	Days or Hours to achieve 100% mortality (Sarcophaga sp.)	Days or Hours to achieve 100% mortality (Aedes aegypti [4])	Days or Hours to achieve 100% mortality (Culex quinquefasciatus [5])	Days or Hours to achieve 100% mortality (Anopheles albimanus [6])	Days or Hours to achieve 100% mortality (Ctenocephalides felis)	Days or Hours to achieve 100% mortality (Crematogaster spp.)	Days or Hours to achieve 100% mortality (Camponotus floridanus [7])	Days or Hours to achieve 100% mortality (Solenopsis invicta [8])	Days or Hours to achieve 100% mortality (Solenopsis invicta [9])	Days or Hours to achieve 100% mortality (Musca domestica [10])	Days or Hours to achieve 100% mortality (Coptotermes formosanus)	Days or Hours to achieve 100% mortality (Aedes aegypti [11])	Days or Hours to achieve 100% mortality (Culex quinquefasciatus [12])	Days or Hours to achieve 100% mortality (Anopheles albimanus [13])
CCN/C(=N\Nc1c(Cl)cc(C(F)(F)F)cc1Cl)C(C)(C)C [Compound I-1, N-ethyl-2,2-dimethylpropionamide-2-(2,6-dichloro-α,α,α-trifluoro-p-tolyl)-hydrazone]	1 days	4 h	4 h	4 h	4 h	4 h	4 h	1 days	2 days	2 days	1 days	1 days	3 days	3 h	5 days	2 days	1 days	1 days
CCN/C(=N\Nc1c(Cl)cc(C(F)(F)F)cc1Cl)C1(C)CC1(Cl)Cl (stereo not drawn) [Compound I-2, N-Ethyl-2,2-dichloro-1-methylcyclopropanecarboxamide-2-(2,6-dichloro-α,α,α-tri-fluoro-p-tolyl)hydrazone]	1 days	4 h	4 h	4 h	4 h	4 h	4 h	1 days	2 days	2 days	1 days	1 days	3 days	3 h	5 days	2 days	1 days	1 days
